Measured values: patent publication US12655116B2, “Substituted isophthalic acid diamides” (Bayer Aktiengesellschaft, priority 2020, dated 2026)

What was measured:
ALOMY [1] = assay: Pre-emergence herbicidal action against ALOMY; type: in vivo, Alopecurus myosuroides; settings: Alopecurus myosuroides, 504 h, pre-emergence
Summary of the method: (§1)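 Greenhouse pots of sandy loam held seeds covered with soil, onto which the compound was applied before emergence. An aqueous suspension or emulsion of WP or EC was used at 600 to 800 l/ha with 0.2% wetting agent. Percent damage was judged visually at 3 weeks.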

VIOTR [2] = assay: Post-emergence herbicidal action against VIOTR; type: in vivo, Viola tricolor; settings: Viola tricolor, 504 h
Summary of the method: (§2)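 A WP or EC formulation diluted in water with 0.2% wetting agent was sprayed at 600 to 800 l/ha onto one-leaf-stage plants grown in sandy loam. About 3 weeks later, action was rated visually in percent, 100% being dead plants.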

VERPE [3] = assay: Post-emergence herbicidal action against VERPE; type: in vivo, Veronica persica; settings: Veronica persica, 504 h
Summary of the method: as §2

POLCO [4] = assay: Pre-emergence herbicidal action against POLCO; type: in vivo, Polygonum convolvulus; settings: Fallopia convolvulus, 504 h, dosage 320 g/ha
Summary of the method: as §1

POLCO [5] = assay: Post-emergence herbicidal action against POLCO; type: in vivo, Polygonum convolvulus; settings: Fallopia convolvulus, 504 h, dosage 80 g/ha
Summary of the method: as §2

VERPE [6] = assay: Pre-emergence herbicidal action against VERPE; type: in vivo, Veronica persica; settings: Veronica persica, 504 h
Summary of the method: as §1

SETVI = assay: Pre-emergence herbicidal action against SETVI; type: in vivo, Setaria viridis; settings: Setaria viridis, 504 h
Summary of the method: as §1

MATIN [7] = assay: Pre-emergence herbicidal action against MATIN; type: in vivo, Matricaria inodora; settings: Tripleurospermum inodorum, 504 h
Summary of the method: as §1

AVEFA [8] = assay: Post-emergence herbicidal action against AVEFA; type: in vivo, Avena fatua; settings: Avena fatua, 504 h, visual assessment about 3 weeks after treatment, 100% = plants have died, 0% = like control plants
Summary of the method: as §2

AMARE [9] = assay: Post-emergence herbicidal action against AMARE; type: in vivo, Amaranthus retroflexus; settings: Amaranthus retroflexus, 504 h, visual assessment about 3 weeks after treatment, 100% = plants have died, 0% = like control plants
Summary of the method: as §2

ECHCG [10] = assay: Pre-emergence herbicidal action against ECHCG; type: in vivo, Echinochloa crus-galli; settings: Echinochloa crus-galli, 504 h
Summary of the method: as §1

VIOTR [11] = assay: Pre-emergence herbicidal action against VIOTR; type: in vivo, Viola tricolor; settings: Viola tricolor, 504 h
Summary of the method: as §1

STEME [12] = assay: Pre-emergence herbicidal action against STEME; type: in vivo, Stellaria media; settings: Stellaria media, 504 h
Summary of the method: as §1

LOLRI = assay: Post-emergence herbicidal action against LOLRI; type: in vivo, Lolium rigidum; settings: Lolium rigidum, 504 h
Summary of the method: as §2

ECHCG [13] = assay: Post-emergence herbicidal action against ECHCG; type: in vivo, Echinochloa crus-galli; settings: Echinochloa crus-galli, 504 h
Summary of the method: as §2

HORMU [14] = assay: Pre-emergence herbicidal action against HORMU; type: in vivo, Hordeum murinum; settings: Hordeum murinum, 504 h, pre-emergence
Summary of the method: as §1

ALOMY [15] = assay: Post-emergence herbicidal action against ALOMY; type: in vivo, Alopecurus myosuroides; settings: Alopecurus myosuroides, 504 h, visual assessment about 3 weeks after treatment vs untreated controls
Summary of the method: as §2

AMARE [16] = assay: Pre-emergence herbicidal action against AMARE; type: in vivo, Amaranthus retroflexus; settings: Amaranthus retroflexus, 504 h, 100% = plants have died, 0% = like control plants
Summary of the method: as §1

HORMU [17] = assay: Post-emergence herbicidal action against HORMU; type: in vivo, Hordeum murinum; settings: Hordeum murinum, 504 h, dosage 80 g/ha
Summary of the method: as §2

STEME [18] = assay: Post-emergence herbicidal action against STEME; type: in vivo, Stellaria media; settings: Stellaria media, 504 h
Summary of the method: as §2

MATIN [19] = assay: Post-emergence herbicidal action against MATIN; type: in vivo, Matricaria inodora; settings: Tripleurospermum inodorum, 504 h
Summary of the method: as §2

AVEFA [20] = assay: Pre-emergence herbicidal action against AVEFA; type: in vivo, Avena fatua; settings: Avena fatua, 504 h, pre-emergence
Summary of the method: as §1

[21] = 320 g/ha, scored visually after 3 weeks, 100% = plants have died, 0% = like control plants

Compound CCNC(=O)c1c(C(F)F)ccc(C(=O)Nc2nnnn2C)c1Cl [Example 1-148] has a pest or weed control at 80 g/ha (ALOMY [1]; 80 g/ha, scored visually after 3 weeks vs untreated controls (100% = plants have died, 0% = like control plants)) of 90%, a pest or weed control at 320 g/ha (ALOMY [1]; [21]) of 100% and a pest or weed control at 20 g/ha (VIOTR [2]; 20 g/ha) of 80%. The pest or weed control at 80 g/ha (VIOTR [2]; 80 g/ha) was 90%, the pest or weed control at 20 g/ha (VERPE [3]; 20 g/ha) was 80% and the pest or weed control at 80 g/ha (VERPE [3]; 80 g/ha) was 80%. For the same compound, the pest or weed control at 320 g/ha (POLCO [4]) was 80%, the pest or weed control at 80 g/ha (POLCO [5]) was 80% and the pest or weed control at 80 g/ha (VERPE [6]; dosage 80 g/ha) was 80%. The pest or weed control at 320 g/ha (VERPE [6]; dosage 320 g/ha) was 100%, the pest or weed control at 80 g/ha (SETVI; dosage 80 g/ha) was 100% and the pest or weed control at 320 g/ha (SETVI; dosage 320 g/ha) was 100%. It also gave a pest or weed control at 80 g/ha (MATIN [7]; dosage 80 g/ha) of 100%, a pest or weed control at 320 g/ha (MATIN [7]; dosage 320 g/ha) of 100% and a pest or weed control at 20 g/ha (AVEFA [8]; 20 g/ha) of 100%. It also gave a pest or weed control at 80 g/ha (AVEFA [8]; 80 g/ha) of 100%, a pest or weed control at 20 g/ha (AMARE [9]; 20 g/ha) of 90% and a pest or weed control at 80 g/ha (AMARE [9]; 80 g/ha) of 90%. The pest or weed control at 80 g/ha (ECHCG [10]; 80 g/ha) was 100%, the pest or weed control at 320 g/ha (ECHCG [10]; 320 g/ha) was 100% and the pest or weed control at 80 g/ha (VIOTR [11]; dosage 80 g/ha) was 100%. It also gave a pest or weed control at 320 g/ha (VIOTR [11]; dosage 320 g/ha) of 100%, a pest or weed control at 80 g/ha (STEME [12]; dosage 80 g/ha) of 100% and a pest or weed control at 320 g/ha (STEME [12]; dosage 320 g/ha) of 100%. It also gave a pest or weed control at 20 g/ha (LOLRI; dosage 20 g/ha) of 80%, a pest or weed control at 80 g/ha (LOLRI; dosage 80 g/ha) of 90% and a pest or weed control at 20 g/ha (ECHCG [13]; dosage 20 g/ha) of 80%. For the same compound, the pest or weed control at 80 g/ha (ECHCG [13]; dosage 80 g/ha) was 80%, the pest or weed control at 80 g/ha (HORMU [14]; 80 g/ha) was 90% and the pest or weed control at 320 g/ha (HORMU [14]; 320 g/ha) was 100%. The pest or weed control at 20 g/ha (ALOMY [15]; dosage 20 g/ha) was 80%, the pest or weed control at 80 g/ha (ALOMY [15]; dosage 80 g/ha) was 90% and the pest or weed control at 80 g/ha (AMARE [16]; 80 g/ha, scored visually after 3 weeks vs untreated controls) was 100%. The pest or weed control at 320 g/ha (AMARE [16]; 320 g/ha, scored visually after 3 weeks) was 100%, the pest or weed control at 80 g/ha (HORMU [17]) was 90% and the pest or weed control at 20 g/ha (STEME [18]; 20 g/ha) was 90%. For the same compound, the pest or weed control at 80 g/ha (STEME [18]; 80 g/ha) was 90%, the pest or weed control at 20 g/ha (MATIN [19]; dosage 20 g/ha) was 100% and the pest or weed control at 80 g/ha (MATIN [19]; dosage 80 g/ha) was 100%. It also gave a pest or weed control at 80 g/ha (AVEFA [20]; 80 g/ha) of 100% and a pest or weed control at 320 g/ha (AVEFA [20]; [21]) of 100%.
